Assay [1] deals with beet armyworm (BAW; Spodoptera exigua: Lepidoptera). In words: 96-well microtiter plate-based high throughput (HTS) diet bioassay on beet armyworm (BAW HTS). The assay is classed as in vivo. The conditions noted are these: for BAW HTS: 96-well microtiter plate HTS diet assay, 12 μg test compound per well, BAW eggs, mortality at 6 d post-treatment, mortality class; for pest or weed control at 12 µg/well, 12 µg/well: Spodoptera exigua, 144 h, read-out: BAW HTS. The essentials:
(§1)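 HTS: eggs on diet topped with 12 μg cpd/well; dark, 29° C; mortality day 6; mean of 6 reps. Tray: 3–5 L2 larvae/well; diet dosed 50 μg/cm^2; 25° C, 14:10 L:D; 6 d; mean of 8 wells. Scored as ≥50% mortality or not.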

The test system is the same in assay [2]. In words: 128-well diet tray assay on beet armyworm (BAW 50). The assay is classed as in vivo. The conditions noted are these: for BAW 50 ug/cm2: 128-well diet tray assay, 50 μg/cm^2 of test compound on diet, second instar BAW larvae, mortality class; for pest or weed control at 50 µg/cm2, 50 µg/cm2: Spodoptera exigua, 144 h, read-out: BAW 50 ug/cm2. The procedure, abridged: as §1

This is an account of results in US8178658B2 (Dow AgroSciences, LLC, priority 2008, dated 2012).

The structures appear in SMILES notation.

As to `CCO[C@@H]1[C@@H](OC)[C@H](C)O[C@@H](OC(=O)N(COC)c2ccc(-c3ncn(-c4ccc(OC(F)(F)C(F)(F)F)cc4)n3)cc2)[C@@H]1OC` [Compound 255, methoxymethyl {4-[1-(4-pentafluoroethoxyphenyl)-1H-[1,2,4]triazol-3-yl]-phenyl}-carbamic acid (2S,3R,4R,5S,6S)-4-ethoxy-3,5-dimethoxy-6-methyl-tetrahydropyran-2-yl ester], in assay [1], the “BAW HTS” value was “B (either (1) the compound was tested and less than 50 percent mortality was observed or (2) the compound was not tested)”; the pest or weed control at 12 µg/well, 12 µg/well is less than 50%. Also, in assay [2], the “BAW 50 ug/cm2” value was “A (the compound was tested and at least 50 percent mortality was observed)”; the pest or weed control at 50 µg/cm2, 50 µg/cm2 was more than 50%.

Turning to `C=CCN(C(=O)O[C@@H]1O[C@@H](C)[C@H](OC)[C@@H](OCC)[C@H]1OC)c1ccc(-c2ncn(-c3ccc(OC(F)(F)C(F)(F)F)cc3)n2)cc1` [Compound 256, allyl {4-[1-(4-pentafluoroethoxy-phenyl)-1H-[1,2,4]triazol-3-yl]-phenyl}-carbamic acid (2S,3R,4R,5S,6S)-4-ethoxy-3,5-dimethoxy-6-methyl-tetrahydropyran-2-yl ester], in assay [1], the “BAW HTS” value is “A (the compound was tested and at least 50 percent mortality was observed)”; the pest or weed control at 12 µg/well, 12 µg/well was more than 50%. In assay [2], the “BAW 50 ug/cm2” value was “A (the compound was tested and at least 50 percent mortality was observed)”; the pest or weed control at 50 µg/cm2, 50 µg/cm2 was more than 50%.

As to `CCCO[C@@H]1[C@@H](OC)[C@H](C)O[C@@H](OC(=O)N(CO)c2ccc(-c3ncn(-c4ccc(OC(F)(F)C(F)(F)F)cc4)n3)cc2)[C@@H]1OC` [Compound 257, hydroxymethyl {4-[1-(4-pentafluoroethoxy-phenyl)-1H-[1,2,4]triazol-3-yl]-phenyl}-carbamic acid (2S,3R,4R,5S,6S)-4-propoxy-3,5-dimethoxy-6-methyl-tetrahydropyran-2-yl ester], in assay [1], the “BAW HTS” value was “B (either (1) the compound was tested and less than 50 percent mortality was observed or (2) the compound was not tested)”; the pest or weed control at 12 µg/well, 12 µg/well is less than 50%. For the same compound, in assay [2], the “BAW 50 ug/cm2” value was “A (the compound was tested and at least 50 percent mortality was observed)”; the pest or weed control at 50 µg/cm2, 50 µg/cm2 was more than 50%.

Take `CCO[C@@H]1[C@@H](OC)[C@H](C)O[C@@H](OC(=O)N(C(C)=O)c2ccc(-c3ncn(-c4ccc(OC(F)(F)C(F)(F)F)cc4)n3)cc2)[C@@H]1OC` [Compound 258, acetyl {4-[1-(4-pentafluoroethoxyphenyl)-1H-[1,2,4]triazol-3-yl]-phenyl}-carbamic acid (2S,3R,4R,5S,6S)-4-ethoxy-3,5-dimethoxy-6-methyl-tetrahydropyran-2-yl ester]: in assay [1], the “BAW HTS” value was “A (the compound was tested and at least 50 percent mortality was observed)”; the pest or weed control at 12 µg/well, 12 µg/well is more than 50%. Besides, in assay [2], the “BAW 50 ug/cm2” value was “A (the compound was tested and at least 50 percent mortality was observed)”; the pest or weed control at 50 µg/cm2, 50 µg/cm2 is more than 50%.

With `CCO[C@@H]1[C@@H](OC)[C@H](C)O[C@@H](OC(=O)N(C(=O)CCC(=O)OC)c2ccc(-c3ncn(-c4ccc(OC(F)(F)C(F)(F)F)cc4)n3)cc2)[C@@H]1OC` [Compound 259, 4-(((2S,3R,4R,5S,6S)-4-ethoxy-3,5-dimethoxy-6-methyl-tetrahydropyran-2-yloxycarbonyl)-{4-[1-(4-pentafluoroethoxy-phenyl)-1H-[1,2,4]triazol-3-yl]-phenyl}-amino)-4-oxo-butyric acid methyl ester], in assay [1], the “BAW HTS” value was “B (either (1) the compound was tested and less than 50 percent mortality was observed or (2) the compound was not tested)”; the pest or weed control at 12 µg/well, 12 µg/well is less than 50%. In assay [2], the “BAW 50 ug/cm2” value is “A (the compound was tested and at least 50 percent mortality was observed)”; the pest or weed control at 50 µg/cm2, 50 µg/cm2 was more than 50%.
